According to PubChem BioAssay AID806 (SRMLSC, 2007):
Calls of active or inactive are those of the source. How the calls were made is not given here.

System: virus-infected cells, CPE inhibition, dose response
Test: PubChem AID 806
Details: for EC90: measured here: EC90 CPE inhibition; for CC50: measured here: cytotoxicity, cell viability IC50

Question: With COc1ccc(NC(=O)C2CCCCN2S(=O)(=O)c2ccc(F)cc2)c(OC)c1 (centres undefined) as the molecule, how does the EC50 read?
Answer: > 60 µM (inactive)

Question: What about the EC90 of the same molecule?
Answer: > 60 µM

Question: What about the CC50 of the same molecule?
Answer: > 60 µM

Question: What does the source list for COc1ccccc1CNC(=O)c1ccc(S(=O)(=O)N2CCCC2)cc1?
Answer: EC50: > 60 µM (inactive); EC90: > 60 µM; CC50: > 60 µM

Question: Which EC50 does the source give for COc1ccc(-c2nnc(SCC#N)o2)cc1 here?
Answer: > 60 µM (inactive)

Question: What about the EC90 of the same molecule?
Answer: > 60 µM

Question: And the CC50?
Answer: 19.7 µM

Question: What does the source list for N#CCCN1CCn2c1nc1ccccc12?
Answer: EC50: > 60 µM (inactive); EC90: > 60 µM; CC50: > 60 µM

Question: For O=C(O)c1ccc(CN2C(=O)CSC2=S)cc1, which EC50 is on record?
Answer: > 60 µM (inactive)

Question: What about the EC90 of the same molecule?
Answer: > 60 µM

Question: What about the CC50 of the same molecule?
Answer: > 60 µM

Question: For Cc1cccc(NC(=O)CCS(=O)(=O)c2cccc3nsnc23)c1C, which EC50 is on record?
Answer: > 60 µM (inactive)

Question: What about the EC90 of the same molecule?
Answer: > 60 µM

Question: What about the CC50 of the same molecule?
Answer: > 60 µM

Question: Which results are given for CC1CCCN(c2ccc(C(=O)NCc3cccs3)cn2)C1 (centres undefined)?
Answer: EC50: > 60 µM (inactive); EC90: > 60 µM; CC50: > 60 µM

Question: How did the EC50 turn out when CC1(C)Cc2c(c(N3CCOCC3)nc3sc4c(=O)[nH]cnc4c23)CS1 was run?
Answer: > 60 µM (inactive)

Question: What about the EC90 of the same molecule?
Answer: > 60 µM

Question: What about the CC50 of the same molecule?
Answer: > 60 µM

Question: Which results are given for O=C(CN1CCN(c2ncccn2)CC1)NCCC1=CCCCC1?
Answer: EC90: > 60 µM; CC50: > 60 µM

Question: How did the EC50 turn out when Cc1cccc(C)c1NC(=O)CCS(=O)(=O)c1cccc2nsnc12 was run?
Answer: > 60 µM (inactive)

Question: And the EC90?
Answer: > 60 µM

Question: What about the CC50 of the same molecule?
Answer: > 60 µM

Question: Which results are given for Cc1noc(C)c1CSc1nc2sc(C)c(C)c2c(=O)n1C1CCCC1?
Answer: EC50: > 60 µM (inactive); EC90: > 60 µM; CC50: 10 µM

Question: Which results are given for CCOc1ccccc1Nc1ncnc2c1cnn2-c1ccccc1?
Answer: EC50: > 60 µM (inactive); EC90: > 60 µM; CC50: > 60 µM

Question: With Cc1cc(C)n(S(=O)(=O)/C=C/c2ccccc2)n1 as the molecule, how does the EC50 read?
Answer: 56.5 µM (inactive)

Question: What about the EC90 of the same molecule?
Answer: > 60 µM

Question: What about the CC50 of the same molecule?
Answer: > 60 µM

Question: For CCCNC(=O)c1noc2c1CCc1ccccc1-2, which EC50 is on record?
Answer: > 60 µM (inactive)

Question: And the EC90?
Answer: > 60 µM

Question: And the CC50?
Answer: > 60 µM

Question: What does the source list for NC(=O)c1c(NC(=O)CSc2nnc(Cc3ccccc3)n2Cc2ccco2)sc2c1CCC2?
Answer: EC50: > 60 µM (inactive); EC90: > 60 µM; CC50: > 60 µM

Question: What does the source list for O=C(c1cccs1)N1CCn2c1nc1ccccc12?
Answer: EC50: > 60 µM (inactive); EC90: > 60 µM; CC50: > 60 µM

Question: For COc1ccc(OC)c(NC(=O)c2cc3ccccc3o2)c1, which EC50 is on record?
Answer: > 60 µM (inactive)

Question: And the EC90?
Answer: > 60 µM

Question: What about the CC50 of the same molecule?
Answer: > 60 µM

Question: Which results are given for Cc1cc(C(=O)Nc2c(C)n(C)n(-c3ccccc3)c2=O)c(C)o1?
Answer: EC50: > 60 µM (inactive); EC90: > 60 µM; CC50: > 60 µM

Question: With O=C(CSc1ccc2nnc(-c3ccc(F)cc3)n2n1)NCc1ccco1 as the molecule, how does the EC50 read?
Answer: > 60 µM (inactive)

Question: And the EC90?
Answer: > 60 µM

Question: And the CC50?
Answer: > 60 µM

Question: Cc1ccc(SCC(=O)Nc2ccc(-c3nnc(-c4ccco4)o3)cc2)cc1 was tested. Which EC50 did it give?
Answer: > 60 µM (inactive)

Question: And the EC90?
Answer: > 60 µM

Question: And the CC50?
Answer: > 60 µM
